“Also recorded” adds a separate entry of the source.
Target: α5GABAARs (Mus musculus, UniProt P22723+Q8BHJ7)
Experiment: Fear conditioning after IL-1β or LPS injection
Assay type: in vivo, mice
Method: Pavlovian fear-conditioning tasks were used for behavioral analysis^29. LPS (125 μg kg^−1, i.p., with physiological saline as the vehicle control) or IL-1β (1 μg kg^−1, i.p., with 0.1% bovine serum albumin as the vehicle control) was injected into male 3- to 4-month-old WT and Gabra5−/− mice 3 h before conditioning. The intensity of the electric footshock was 0.5 mA. For some mice, the inverse agonist L-655,708 (0.35 or 0.5 mg kg^−1, i.p.) or vehicle control (10% DMSO, i.p.) was injected 30 min before training. The movement of the mouse was monitored. The percentage of time that each mouse spent in a freezing position was determined using FreezeView software (Version 2.26, Actimetrics Inc, Wilmette, Ill., USA).
We have determined that IL-1β-induced impairment of contextual fear memory can be reversed by pharmacological inhibition of α5GABAA receptors by the inverse agonist MRK-016. Fear conditioning was performed 3 h after injection of IL-1β (1 μg kg^−1, i.p.) in both wild-type (WT) and α5GABAA receptor knock out (Gabra5−/−) mice. Mice were trained to associate a context (contextual fear) and a tone (cued fear) with an aversive electric footshock. 24 h after conditioning each mouse was placed in the training context, and contextual fear memory was measured as the percentage of time spent freezing. Cued fear memory was measured 48 h after training as the percentage of time spent freezing to the conditioned auditory tone in a novel context.

Chain of α5GABAARs (Q8BHJ7 32-463 limits assumed): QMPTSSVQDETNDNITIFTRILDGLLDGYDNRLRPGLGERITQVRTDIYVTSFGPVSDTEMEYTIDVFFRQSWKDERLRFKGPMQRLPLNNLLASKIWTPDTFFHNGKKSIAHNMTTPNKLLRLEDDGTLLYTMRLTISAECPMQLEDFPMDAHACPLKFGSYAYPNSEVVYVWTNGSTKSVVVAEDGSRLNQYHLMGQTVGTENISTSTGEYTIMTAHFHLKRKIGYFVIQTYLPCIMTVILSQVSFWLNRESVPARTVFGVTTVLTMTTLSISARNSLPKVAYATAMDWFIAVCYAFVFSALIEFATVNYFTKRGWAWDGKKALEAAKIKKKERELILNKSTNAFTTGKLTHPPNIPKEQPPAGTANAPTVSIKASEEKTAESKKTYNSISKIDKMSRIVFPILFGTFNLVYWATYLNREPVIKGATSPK
Chain of α5GABAARs (P63080 26-473 partner): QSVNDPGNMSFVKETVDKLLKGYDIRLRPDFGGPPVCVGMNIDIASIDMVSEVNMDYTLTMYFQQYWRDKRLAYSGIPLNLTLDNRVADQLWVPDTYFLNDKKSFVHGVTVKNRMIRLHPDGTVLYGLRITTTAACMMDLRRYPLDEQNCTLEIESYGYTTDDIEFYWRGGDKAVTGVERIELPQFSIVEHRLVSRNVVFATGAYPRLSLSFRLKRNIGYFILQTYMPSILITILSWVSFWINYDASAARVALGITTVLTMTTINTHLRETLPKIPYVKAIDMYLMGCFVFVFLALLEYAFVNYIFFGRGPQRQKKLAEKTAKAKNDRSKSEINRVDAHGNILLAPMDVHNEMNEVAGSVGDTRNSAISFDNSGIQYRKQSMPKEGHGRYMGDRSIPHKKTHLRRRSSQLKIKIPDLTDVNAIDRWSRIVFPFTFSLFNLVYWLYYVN
Chain of α5GABAARs (P22723 39-474): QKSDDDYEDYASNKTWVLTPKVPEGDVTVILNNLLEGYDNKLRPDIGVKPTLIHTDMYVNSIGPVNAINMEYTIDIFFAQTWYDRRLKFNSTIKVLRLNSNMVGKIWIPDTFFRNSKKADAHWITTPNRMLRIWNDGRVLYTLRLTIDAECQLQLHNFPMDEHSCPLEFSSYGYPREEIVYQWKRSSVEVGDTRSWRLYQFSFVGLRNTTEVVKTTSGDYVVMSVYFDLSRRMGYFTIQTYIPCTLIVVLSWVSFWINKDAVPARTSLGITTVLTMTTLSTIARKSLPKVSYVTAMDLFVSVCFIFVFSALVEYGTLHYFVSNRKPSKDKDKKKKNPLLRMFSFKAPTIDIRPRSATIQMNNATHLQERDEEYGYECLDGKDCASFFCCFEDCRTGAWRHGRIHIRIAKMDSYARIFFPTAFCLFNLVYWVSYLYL

SMILES: CCOC(=O)c1ncn2c1[C@@H]1CCCN1C(=O)c1cc(OC)ccc1-2 [L-655,708]
- contextual fear memory, WT mice (in words) (IL-1β 1 μg kg^−1 i.p. or LPS 125 μg kg^−1 i.p. 3 h before conditioning, inverse agonist co-administered): attenuated the IL-1β-induced contextual fear memory deficits in WT mice; also recorded: restored freezing scores for contextual fear memory to control values
- cued fear memory to a conditioned tone stimulus (in words) (mouse, in vivo): did not affect freezing to a conditioned tone stimulus

Reference: US9517265B2, “Methods for the prevention and/or treatment of memory impairment” (The Governing Council of the University of Toronto, priority 2010, dated 2016)
